The results in this text go back to US20040043985A1, “6,6-Fused heteroaryl derivatives as matrix metalloproteinase inhibitors” (priority 2002, published 2004).

The assay concerns the target T1, hMMP-13CD (Homo sapiens, UniProt P45452).
T1 construct: a human MMP-13 catalytic domain (“hMMP-13CD”)
As to the kind of experiment: Inhibition of MMP-13 catalytic domain (thiopeptolide substrate assay). It is filed as biochemical. The text has this:
The assays measure the amount by which a test compound reduces the hydrolysis of a thiopeptolide substrate catalyzed by a matrix metalloproteinase enzyme. Such assays are described in detail by Ye et al., in Biochemistry, 1992;31(45):11231-11235, which is incorporated herein by reference. One such assay is described below in Biological Method 1.
Thiopeptolide substrates show virtually no decomposition or hydrolysis at or below neutral pH in the absence of a matrix metalloproteinase enzyme. A typical thiopeptolide substrate commonly utilized for assays is Ac-Pro-Leu-Gly-thioester-Leu-Leu-Gly-OEt. A 100 μL assay mixture will contain 50 mM of N-2-hydroxyethylpiperazine-N′-2-ethanesulfonic acid buffer (“HEPES,” pH 7.0), 10 mM CaCl2, 100 μM thiopeptolide substrate, and 1 mM 5,5′-dithio-bis-(2-nitro-benzoic acid) (DTNB). The thiopeptolide substrate concentration may be varied, for example from 10 to 800 μM to obtain Km and Kcat values. The change in absorbance at 405 nm is monitored on a Thermo Max microplate reader (molecular Devices, Menlo Park, Calif.) at room temperature (22° C.). The calculation of the amount of hydrolysis of the thiopeptolide substrate is based on E412=13600 M^−1 cm^−1 for the DTNB-derived product 3-carboxy-4-nitrothiophenoxide. […]

Consider `O=C(O)c1ccc(Cn2ccc3ccc(C#CCn4ccnn4)cc3c2=O)cc1` [4-[1-oxo-7-(3-[1,2,3]triazol-1-ylprop-1-ynyl)-1H-isoquinolin-2-ylmethyl]benzoic acid], for which the half-maximal inhibitory concentration (IC50) – broadly, the concentration at which inhibition is half-maximal – is above 50 µM.
